Experimental data taken from patent US20210369853A1, “TARGETED PROTEASE DEGRADATION PLATFORM” (EUBULUS BIOTHERAPEUTICS INC., priority 2018, published 2021).
Like-named read-outs stand apart in the source and are kept apart here.

Key:
Assay type in all cases: cell-based
[1] = test system: Human Colon Cancer HCT-116; experiment: Cell proliferation experiment (Alarm blue, 72 h, EC50); conditions: Homo sapiens, HCT-116; HCT116 cells
Method in brief: (§1)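 EC50 values derive from Alamar blue fluorescence measured after cells in 96-well plates were incubated 72 h with compound diluted 5-fold per step in complete medium.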

[2] = test system: Human Monocytic Leukemia MV4-11; experiment: as above; conditions: Homo sapiens
Method in brief: as §1

[3] = test system: Human Small Cell Lung Cancer NCI-H82; experiment: as above; conditions: Homo sapiens, NCI-H82; NCIH82 cells
Method in brief: as §1

[4] = target: T1, BRD4 (Homo sapiens, UniProt O60885); experiment: Western blot, protein degradation (DC50)
T1 construct: endogenous in cells
Method in brief: (§2)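 Protein loss read by ECL Western blot after compound treatment of cells; RIPA lysates run on 4%-12% SDS-PAGE, transferred to PVDF, primary antibody overnight at 4° C. Degradation derived from quantified band intensities.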

[5] = target: T2, PLK1 (Homo sapiens, UniProt P53350); experiment: Western blot, protein degradation (DC50)
T2 construct: endogenous in cells
Method in brief: as §2

[6] = test system: Human Breast Cancer MDA-MB-231; experiment: Cell proliferation experiment (Alarm blue, 72 h, EC50); conditions: Homo sapiens; MDA-MB-231 cells
Method in brief: as §1

[7] = test system: Human Colon Cancer HT-29; experiment: as above; conditions: Homo sapiens; HT-29 cells
Method in brief: as §1

[8] = test system: Human cervical adenocarcinoma cells Hela; experiment: as above; conditions: Homo sapiens
Method in brief: as §1

[9] = test system: Human Glioma Cells U-87 MG; experiment: as above; conditions: Homo sapiens; U-87MG cells
Method in brief: as §1

[10] = test system: Human Acute Myelomonocytic Leukemia HL-60; experiment: as above; conditions: HL-60 cells
Method in brief: as §1

[11] = test system: Human Monocytic Leukemia THP-1; experiment: as above; conditions: THP-1 cells
Method in brief: as §1

[12] = test system: Human Acute Lymphoblastic Leukemia Cells MOLT-4; experiment: as above; conditions: MOL4-4 cells
Method in brief: as §1

[13] = 6 h, western blot, read-out: BRD4 DC50 (6 h)
[14] = 6 h, western blot, read-out: PLK1 DC50 (6 h)
[15] = 24 h, read-out: BRD4 DC50 (24 h)
[16] = 24 h, read-out: PLK1 DC50 (24 h)
[17] = 24 h, western blot, read-out: BRD4 DC50 (24 h)
[18] = 24 h, western blot, read-out: PLK1 DC50 (24 h)

T2 sequence (P53350 whole entry): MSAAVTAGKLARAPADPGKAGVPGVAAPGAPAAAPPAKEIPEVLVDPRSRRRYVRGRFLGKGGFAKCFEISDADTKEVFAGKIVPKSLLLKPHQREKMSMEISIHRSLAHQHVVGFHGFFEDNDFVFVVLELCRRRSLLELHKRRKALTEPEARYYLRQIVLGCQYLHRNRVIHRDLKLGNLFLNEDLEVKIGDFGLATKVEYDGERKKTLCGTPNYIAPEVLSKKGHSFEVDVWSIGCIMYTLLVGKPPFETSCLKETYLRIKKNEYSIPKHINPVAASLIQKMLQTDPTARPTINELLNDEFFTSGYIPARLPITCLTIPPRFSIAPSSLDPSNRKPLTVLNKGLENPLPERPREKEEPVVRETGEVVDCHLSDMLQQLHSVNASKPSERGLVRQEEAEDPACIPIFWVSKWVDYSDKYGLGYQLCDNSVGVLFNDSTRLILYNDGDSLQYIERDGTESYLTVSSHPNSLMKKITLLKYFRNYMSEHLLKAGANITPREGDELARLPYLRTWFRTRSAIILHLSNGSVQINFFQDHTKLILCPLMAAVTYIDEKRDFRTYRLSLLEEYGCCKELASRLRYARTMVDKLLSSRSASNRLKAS

EC50 [1] [nM] | EC50 ([2]; MV4-11, MV4;11 cells) [nM] | EC50 [3] [nM] | EC50 [7] [nM] | SMILES | EC50 [6] [nM] | EC50 [9] [nM] | EC50 [10] [nM] | further results
100 to 1000 | < 10 | > 1000 | – | CC[C@@H]1C(=O)N(C)c2cnc(Nc3ccc(C(=O)NCCOCCOCCOCC(=O)Nc4cccc5c4CN(C4CCC(=O)NC4=O)C5=O)cc3OC)nc2N1Cc1ccc(Br)cc1 (some centres unmarked) [UB-180566] | – | – | – | DC50 [4, 13]: < 10 nM; DC50 [5, 14]: < 10 nM
> 1000 | 10 to 100 | > 1000 | – | CC[C@@H]1C(=O)N(C)c2cnc(Nc3ccc(C(=O)NCCCNCCCCCCC(=O)Nc4cccc5c4CN(C4CCC(=O)NC4=O)C5=O)cc3OC)nc2N1Cc1ccc(Br)cc1 (some centres unmarked) [UB-180627] | – | – | – | DC50 [4, 15]: < 10 nM; DC50 [5, 16]: 100 to 1000 nM
> 1000 | < 10 | > 1000 | 100 to 1000 | CC[C@@H]1C(=O)N(C)c2cnc(Nc3ccc(C(=O)NCCOCCOCCOCCNCCC(=O)Nc4cccc5c4CN(C4CCC(=O)NC4=O)C5=O)cc3OC)nc2N1Cc1ccc(Br)cc1 (some centres unmarked) [UB-180634] | 100 to 1000 | 100 to 1000 | 100 to 1000 | EC50 [8]: 100 to 1000 nM; EC50 [11]: 100 to 1000 nM
– | 10 to 100 | – | 100 to 1000 | CC[C@@H]1C(=O)N(C)c2cnc(Nc3ccc(C(=O)NCc4cn(CCOCCNCCC(=O)Nc5cccc6c5CN(C5CCC(=O)NC5=O)C6=O)nn4)cc3OC)nc2N1C1CCCC1 (some centres unmarked) [UB-180707] | – | – | – | –

The next lines start with the molecule.

SMILES | EC50 [1] [nM] | EC50 ([2]; MV4-11, MV4;11 cells) [nM] | EC50 [3] [nM] | EC50 [7] [nM] | EC50 [6] [nM] | EC50 [9] [nM] | EC50 [10] [nM] | further results
CC[C@@H]1C(=O)N(C)c2cnc(Nc3ccc(C(=O)NCCOCCNCCCC(=O)Nc4cccc5c4CN(C4CCC(=O)NC4=O)C5=O)cc3OC)nc2N1Cc1ccc(Br)cc1 (some centres unmarked) [UB-180625] | > 1000 | 10 to 100 | > 1000 | – | – | – | – | DC50 [4, 15]: < 10 nM; DC50 [5, 16]: < 10 nM
CC[C@@H]1C(=O)N(C)c2cnc(Nc3ccc(C(=O)NCCCNCCCCC(=O)Nc4cccc5c4CN(C4CCC(=O)NC4=O)C5=O)cc3OC)nc2N1C1CCCC1 (some centres unmarked) [UB-180658] | 100 to 1000 | 10 to 100 | > 1000 | 100 to 1000 | 100 to 1000 | 100 to 1000 | 100 to 1000 | EC50 [8]: 100 to 1000 nM; EC50 [11]: 100 to 1000 nM; DC50 [4, 13]: 10 to 100 nM; DC50 [5, 14]: 10 to 100 nM
CC[C@@H]1C(=O)N(C)c2cnc(Nc3ccc(C(=O)NCCOCCOCCOCCNCCCCC(=O)Nc4cccc5c4CN(C4CCC(=O)NC4=O)C5=O)cc3OC)nc2N1Cc1ccc(Br)cc1 (some centres unmarked) [UB-180667] | – | – | 100 to 1000 | 100 to 1000 | 100 to 1000 | 100 to 1000 | 100 to 1000 | EC50 ([2]; MV4;11 cells): 10 to 100 nM; EC50 [12]: 100 to 1000 nM; DC50 [4, 17]: < 10 nM; DC50 [5, 18]: < 10 nM
CC[C@@H]1C(=O)N(C)c2cnc(Nc3ccc(C(=O)NCc4cn(CCNCCCC(=O)Nc5cccc6c5CN(C5CCC(=O)NC5=O)C6=O)nn4)cc3OC)nc2N1C1CCCC1 (some centres unmarked) [UB-180681] | – | – | 100 to 1000 | 100 to 1000 | 100 to 1000 | 100 to 1000 | 100 to 1000 | EC50 ([2]; MV4;11 cells): < 10 nM; EC50 [12]: 100 to 1000 nM; DC50 [4, 13]: < 10 nM; DC50 [5, 14]: 100 to 1000 nM
CC[C@@H]1C(=O)N(C)c2cnc(Nc3ccc(C(=O)NCc4cn(CCNCC(=O)Nc5cccc6c5CN(C5CCC(=O)NC5=O)C6=O)nn4)cc3OC)nc2N1C1CCCC1 (some centres unmarked) [UB-180691] | – | 10 to 100 | – | 100 to 1000 | – | – | – | –
CC[C@@H]1C(=O)N(C)c2cnc(Nc3ccc(C(=O)NC4CCN(CCOCCNCC(=O)Nc5cccc6c5CN(C5CCC(=O)NC5=O)C6=O)CC4)cc3OC)nc2N1C1CCCC1 (some centres unmarked) [UB-180699] | – | – | 100 to 1000 | 100 to 1000 | > 1000 | 100 to 1000 | 100 to 1000 | EC50 ([2]; MV4;11 cells): 10 to 100 nM; EC50 [8]: 100 to 1000 nM; EC50 [11]: 100 to 1000 nM; EC50 [12]: 100 to 1000 nM; DC50 [4, 17]: < 10 nM; DC50 [5, 18]: < 10 nM
CC[C@@H]1C(=O)N(C)c2cnc(Nc3ccc(C(=O)NCc4cn(CCNCCOCC(=O)Nc5cccc6c5CN(C5CCC(=O)NC5=O)C6=O)nn4)cc3OC)nc2N1C1CCCC1 (some centres unmarked) [UB-180719] | – | 10 to 100 | – | 100 to 1000 | – | – | – | DC50 ([4]; 6 h, read-out: BRD4 DC50 (nM) (6 h)): < 10 nM; DC50 ([4]; 24 h, read-out: BRD4 DC50 (nM) (24 h)): < 10 nM; DC50 ([5]; 6 h, read-out: PLK1 DC50 (nM) (6 h)): 10 to 100 nM; DC50 ([5]; 24 h, read-out: PLK1 DC50 (nM) (24 h)): < 10 nM
